Data as given in ChEMBL document CHEMBL1129706, “Z1046, a novel peripheral dopaminergic agent” (Bioorg Med Chem Lett, 1996).

Assays:
[1] = target: T1, Adrenergic receptor alpha-1 (Homo sapiens, UniProt P35348+P25100+P35368); test: Activity at alpha-1 adrenergic receptor in rabbit aorta rings; format: tissue-based, Oryctolagus cuniculus; conditions: target entry is the homologue from another species
T1 sequence (P35348 whole entry): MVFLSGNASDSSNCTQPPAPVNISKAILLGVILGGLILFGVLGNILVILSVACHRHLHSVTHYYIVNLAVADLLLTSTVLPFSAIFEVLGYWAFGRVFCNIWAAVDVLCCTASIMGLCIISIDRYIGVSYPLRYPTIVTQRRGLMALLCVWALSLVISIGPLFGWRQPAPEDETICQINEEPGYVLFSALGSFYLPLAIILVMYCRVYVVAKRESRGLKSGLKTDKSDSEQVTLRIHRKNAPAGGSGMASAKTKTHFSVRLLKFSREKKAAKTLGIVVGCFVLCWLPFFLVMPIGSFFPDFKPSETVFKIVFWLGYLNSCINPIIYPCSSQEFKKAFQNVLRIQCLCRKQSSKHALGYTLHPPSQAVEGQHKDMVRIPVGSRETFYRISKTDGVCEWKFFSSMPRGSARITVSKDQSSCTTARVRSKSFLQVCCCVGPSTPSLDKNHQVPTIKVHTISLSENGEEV
T1 sequence (P25100 whole entry): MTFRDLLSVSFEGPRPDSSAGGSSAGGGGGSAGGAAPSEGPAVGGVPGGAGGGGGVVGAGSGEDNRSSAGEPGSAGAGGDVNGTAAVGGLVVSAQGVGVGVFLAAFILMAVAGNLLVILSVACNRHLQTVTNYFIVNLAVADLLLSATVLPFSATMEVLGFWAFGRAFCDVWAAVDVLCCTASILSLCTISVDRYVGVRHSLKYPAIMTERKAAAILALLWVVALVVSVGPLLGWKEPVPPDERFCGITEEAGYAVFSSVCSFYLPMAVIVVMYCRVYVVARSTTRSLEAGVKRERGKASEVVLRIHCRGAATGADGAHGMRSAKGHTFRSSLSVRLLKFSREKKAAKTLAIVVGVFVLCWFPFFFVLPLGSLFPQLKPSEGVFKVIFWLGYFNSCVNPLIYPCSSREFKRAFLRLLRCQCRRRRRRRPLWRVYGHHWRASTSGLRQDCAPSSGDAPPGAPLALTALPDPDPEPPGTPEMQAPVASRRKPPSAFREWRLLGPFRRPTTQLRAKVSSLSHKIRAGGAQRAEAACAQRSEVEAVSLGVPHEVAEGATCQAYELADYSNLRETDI
T1 sequence (P35368 whole entry): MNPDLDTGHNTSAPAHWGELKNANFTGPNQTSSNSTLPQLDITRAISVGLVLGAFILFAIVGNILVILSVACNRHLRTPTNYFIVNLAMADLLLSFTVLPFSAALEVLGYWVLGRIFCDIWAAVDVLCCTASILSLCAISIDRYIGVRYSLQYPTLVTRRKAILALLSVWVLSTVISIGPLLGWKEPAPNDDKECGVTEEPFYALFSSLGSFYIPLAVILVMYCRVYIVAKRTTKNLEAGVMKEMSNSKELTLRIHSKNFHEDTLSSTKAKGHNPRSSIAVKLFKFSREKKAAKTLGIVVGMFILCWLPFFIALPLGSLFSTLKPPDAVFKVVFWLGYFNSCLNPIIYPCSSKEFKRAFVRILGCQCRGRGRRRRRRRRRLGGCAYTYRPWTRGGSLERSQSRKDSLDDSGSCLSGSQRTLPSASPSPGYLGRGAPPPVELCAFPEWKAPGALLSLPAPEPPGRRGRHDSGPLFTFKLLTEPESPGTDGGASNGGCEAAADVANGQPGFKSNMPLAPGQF

[2] = target: D(2) dopamine receptor (Homo sapiens) (UniProt P14416); conditions: Oryctolagus cuniculus; Artery
Description: Activity at Dopamine receptor D2 in rabbit ear artery

[3] = target: D(1A) dopamine receptor (Homo sapiens) (UniProt P21728); conditions: Oryctolagus cuniculus
Description: Dopamine receptor D1 like evaluated for mesenteric blood flow increase in anesthetized rabbit

[4] = target: Adrenergic receptor alpha-2 (Homo sapiens) (UniProt P08913+P18825+P18089); conditions: Cavia porcellus; Cardiac atrium
Description: Alpha-2 adrenergic receptor activity in guinea pig right atrium

[5] = target: Adrenergic receptor alpha-1 (Homo sapiens) (UniProt P35348+P25100+P35368); conditions: Oryctolagus cuniculus; Aorta

Chain of D(1A) dopamine receptor (Homo sapiens) (P21728 whole entry): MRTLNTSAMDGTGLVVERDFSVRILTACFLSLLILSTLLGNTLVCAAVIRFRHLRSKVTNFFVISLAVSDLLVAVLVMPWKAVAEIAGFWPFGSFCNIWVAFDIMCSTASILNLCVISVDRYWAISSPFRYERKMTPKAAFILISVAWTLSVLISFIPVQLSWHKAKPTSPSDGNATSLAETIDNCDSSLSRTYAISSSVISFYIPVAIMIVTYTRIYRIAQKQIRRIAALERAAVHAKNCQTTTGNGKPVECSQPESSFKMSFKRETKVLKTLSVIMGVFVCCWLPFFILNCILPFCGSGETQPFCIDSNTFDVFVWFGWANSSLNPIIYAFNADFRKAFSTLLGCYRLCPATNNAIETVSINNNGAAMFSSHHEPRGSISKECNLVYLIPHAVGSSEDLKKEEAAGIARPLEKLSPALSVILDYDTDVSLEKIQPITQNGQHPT
Chain of D(2) dopamine receptor (Homo sapiens) (P14416 whole entry): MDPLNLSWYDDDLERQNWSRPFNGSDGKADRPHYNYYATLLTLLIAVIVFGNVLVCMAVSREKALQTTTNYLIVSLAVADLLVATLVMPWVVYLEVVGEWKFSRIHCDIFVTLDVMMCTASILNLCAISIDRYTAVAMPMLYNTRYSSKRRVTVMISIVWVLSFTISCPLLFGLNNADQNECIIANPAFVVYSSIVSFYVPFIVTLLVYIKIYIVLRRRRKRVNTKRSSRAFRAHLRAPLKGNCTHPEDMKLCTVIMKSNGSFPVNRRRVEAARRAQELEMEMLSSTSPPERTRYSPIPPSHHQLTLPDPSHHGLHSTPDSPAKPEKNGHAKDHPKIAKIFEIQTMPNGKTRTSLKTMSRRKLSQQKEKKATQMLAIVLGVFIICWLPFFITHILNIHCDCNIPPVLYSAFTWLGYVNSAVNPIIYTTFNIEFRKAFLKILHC

SMILES | pA2 [1] | pD2 [2] | ED20 [3] [nM/kg] | pD2 [4] | pD2 [5]
CCCN(CCCCCCNCCOc1ccccc1OC)[C@H]1CCc2c(ccc(O)c2O)C1 | 6.5 | 9 | 13 | 6.7 | –
CCCN(CCCCCCNCCOc1ccccc1OC)CCc1ccc(O)c(O)c1 | 6.5 | 7.56 | > 3000 | < 5 | –
CCCN(CCCCCCN(CCC)[C@H]1CCc2c(ccc(O)c2O)C1)CCOc1ccccc1OC | < 5 | 7.4 | 407 | 6 | –
CNC[C@H](O)c1cccc(O)c1 | – | – | – | – | 6.5
CCCN(CCCCCNCCOc1ccccc1OC)[C@H]1CCc2c(ccc(O)c2O)C1 | 6.5 | 8.7 | 107 | 6.5 | –

Now from value to molecule:

pA2 [1] | pD2 [2] | ED20 [3] [nM/kg] | pD2 [4] | pD2 [5] | SMILES
< 5 | 8.5 | 34 | 6.9 | – | CCCN(CCCCCCN(C)CCOc1ccccc1OC)[C@H]1CCc2c(ccc(O)c2O)C1
6.9 | 6.5 | 1050 | < 5 | – | CCCN(CCCCCCNCCOc1ccccc1OC)[C@@H]1CCc2c(ccc(O)c2O)C1
6.8 | 8.4 | 35 | 5.7 | – | CCCN(CCCCCCCNCCOc1ccccc1OC)[C@H]1CCc2c(ccc(O)c2O)C1
6.6 | 7.5 | 60 | < 5 | – | CCCCN(CCCCCCNCCOc1ccccc1OC)[C@H]1CCc2c(ccc(O)c2O)C1
7.1 | 6.5 | > 3000 | < 5 | – | COc1ccccc1OCCNCCCCCCN[C@H]1CCc2c(ccc(O)c2O)C1
